Experimental findings from patent US7511059B2, “Thiazolidinones, their production and use as pharmaceutical agents” (Schering Ag, priority 2005, dated 2009) are described below.

Each structure is given as a SMILES string.

Test [1] relates to human MaTu breast tumor cells. Briefly: Proliferation Assay. It is filed as cell-based. The conditions noted are these: 96 h, incubated 4 days, crystal violet, read-out: Inhibition of the Tumor Cell Proliferation (MaTu) IC50. The protocol:
Cultivated human MaTu breast tumor cells were flattened out at a density of 5000 cells/measuring point in a 96-well multititer plate in 200 μl of the corresponding growth medium. After 24 hours, the cells of one plate (zero-point plate) were colored with crystal violet (see below), while the medium of the other plates was replaced by fresh culture medium (200 μl), to which the test substances were added at various concentrations (0 μm, as well as in the range of 0.01-30 μm; the final concentration of the solvent dimethyl sulfoxide was 0.5%). The cells were incubated for 4 days in the presence of test substances. The cell proliferation was determined by coloring the cells with crystal violet: the cells were fixed by adding 20 μl/measuring point of an 11% glutaric aldehyde solution for 15 minutes at room temperature. After three washing cycles of the fixed cells with water, the plates were dried at room temperature. The cells were colored by adding 100 μl/measuring point of a 0. 1% crystal violet solution (pH was set at 3 by adding acetic acid). After three washing cycles of the colored cells with water, the plates were dried at room temperature. The dye was dissolved by adding 100 μl/measuring point of a 10% acetic acid solution. The extinction was determined by photometry at a wavelength of 595 nm. The change of cell growth, in percent, was calculated by standardization of the measured values to the extinction values of the zero-point plate (=0%) and the extinction of the untreated (0 μm) cells (=100%).

A further test deals with T1, Recombinant human Plk-1 (Homo sapiens, UniProt P53350).
T1 construct: 6xHis; made in house; host or cells: baculovirus-infected Hi5 insect cells
Briefly: PLK Enzyme Assay. To be noted: biotinylated casein and 33P-γ-ATP as substrate, 90 minutes at room temperature, read-out: PLK-1 IC50 [nM] Inhibition. The class given is biochemical. As to the method:
Recombinant human Plk-1 (6× His) was purified from baculovirus-infected insect cells (Hi5).
10 ng of (produced in a recombinant manner and purified) PLK enzyme is incubated for 90 minutes at room temperature with biotinylated casein and 33P-γ-ATP as a substrate in a volume of 15 μl in 384-well Greiner small-volume microtiter plates (final concentrations in the buffer: 660 ng/ml of PLK; 0.7 lmol of casein, 0.5 gmol of ATP incl. 400 nCi/ml of 33P-γ-ATP; 10 mmol of MgCl2, 1 mmol of MnCl2; 0.01% NP40; 1 mmol of DTT, protease inhibitors; 0.1 mmol of Na2VO3 in 50 mmol of HEPES, pH 7.5). To complete the reaction, 5 μl of stop solution (500 μmol of ATP; 500 mmol of EDTA; 1% Triton X100; 100 mg/ml of streptavidin-coated SPA beads in PBS) is added. After the microtiter plate is sealed by film, the beads are sedimented by centrifuging (10 minutes, 1500 rpm). The incorporation of 33P-γ-ATP in casein is intended as a measurement of enzyme activity by β-counting.
Test substances are used in various concentrations (0 μmol, as well as in the range of 0.01-30 μmol). The final concentration of the solvent dimethyl sulfoxide is 1.5% in all batches.

T1 sequence (P53350 whole entry): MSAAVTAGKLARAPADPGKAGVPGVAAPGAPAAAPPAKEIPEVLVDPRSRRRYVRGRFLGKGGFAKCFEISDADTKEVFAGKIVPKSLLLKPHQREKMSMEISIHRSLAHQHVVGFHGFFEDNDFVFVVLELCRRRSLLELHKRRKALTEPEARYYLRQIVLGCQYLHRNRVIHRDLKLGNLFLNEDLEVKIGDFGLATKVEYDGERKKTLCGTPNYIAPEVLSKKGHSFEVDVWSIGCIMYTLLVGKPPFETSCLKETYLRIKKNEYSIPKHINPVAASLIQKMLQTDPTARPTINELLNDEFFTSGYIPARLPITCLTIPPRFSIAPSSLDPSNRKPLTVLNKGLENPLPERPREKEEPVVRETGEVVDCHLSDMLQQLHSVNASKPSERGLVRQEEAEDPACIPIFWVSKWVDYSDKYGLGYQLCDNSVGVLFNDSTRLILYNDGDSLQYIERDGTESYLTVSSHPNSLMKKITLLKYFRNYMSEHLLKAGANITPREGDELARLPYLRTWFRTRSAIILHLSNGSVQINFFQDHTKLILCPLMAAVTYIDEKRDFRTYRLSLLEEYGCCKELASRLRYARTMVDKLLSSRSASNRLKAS

Take `CCNc1cc(NC=c2sc(=C(C#N)C3=N[C@H]4CCC[C@H]4O3)n(CC)c2=O)ccn1` (mixture of isomers) [Example 38, [3-Ethyl-5-[1-(2-ethylamino-pyridin-4-ylamino)-meth-(E/Z)-ylidene]-4-oxo-thiazolidin-(2-(E or Z))-ylidene]-(3aS,6aR)-4,5,6,6a-tetrahydro-3aH-cyclopentaoxazol-2-yl-acetonitrile]: the results for the IC50 (in test [1]; on Recombinant human Plk-1) were 1200 nM and 24 nM, respectively.
For `CCn1c(=C(C#N)C2=NCC(C)O2)sc(=CNc2cccc(NC(=O)C(C)(C)C)c2)c1=O` (mixture of isomers) [Example 15, N-(3-{[2-[1-Cyano-1-(5-methyl-4,5-dihydro-oxazol-2-yl)-meth-(E or Z)-ylidene]-3-ethyl-4-oxo-thiazolidin-(5-(E/Z))-ylidenemethyl]-amino}-phenyl)-2,2-dimethyl-propionamide] the same measures were 2100 nM and 55 nM.
For `CCn1c(=C(C#N)C2=N[C@@H](C)CO2)sc(=CNc2cccc(NC(=O)C(C)(C)C)c2)c1=O` [Example 20, N-(3-{[2-[1-Cyano-1-((S)-4-methyl-4,5-dihydro-oxazol-2-yl)-meth-(E or Z)-ylidene]-3-ethyl-4-oxo-thiazolidin-(5-(E/Z))-ylidenemethyl]-amino-phenyl)-2,2-dimethyl-propionamide] the same measures were 3200 nM and 140 nM.
Consider `CCn1c(=C(C#N)C2=NC(C)(C)CO2)sc(=CNc2cccc(NC(=O)COCCOC)n2)c1=O` (mixture of isomers) [Example 37, N-(6-{[2-[1-Cyano-1-(4,4-dimethyl-4,5-dihydro-oxazol-2-yl)-meth-(E or Z)-ylidene]-3-ethyl-4-oxo-thiazolidin-(5-(E/Z))-ylidenemethyl]-amino}-pyridin-2-yl)-2-(2-methoxy-ethoxy)-acetamide], for which the figures for the IC50 (in test [1]; on Recombinant human Plk-1) were 3600 nM and 69 nM, respectively.
For `CCn1c(=C(C#N)C2=N[C@H]3CCC[C@H]3O2)sc(=CNc2cccc(NC(=O)C(C)(C)O)c2)c1=O` (mixture of isomers) [Example 31, N-(3-{[2-[(3aS,6aR)-1-Cyano-1-4,5,6,6a-tetrahydro-3aH-cyclopentaoxazol-2-yl-meth-(E or Z)-ylidene]-3-ethyl-4-oxo-thiazolidin-(5-(E/Z))-ylidenemethyl]-amino}-phenyl)-2-hydroxy-2-methyl-propionamide] the same measures were 1200 nM and 53 nM.
